Results: US20240376144A9, “NEUROACTIVE STEROIDS S[…] POSITION 10 WITH A CYCLIC GROUP FOR USE IN THE TREATMENT OF CNS DISORDERS” (Sage Therapeutics, Inc., priority 2018, published 2024)

Target: GABAA receptor ([35S]-TBPS binding, rat brain cortical membranes)
Assay: Steroid inhibition of [35S]-TBPS binding
Details: 3 nM [35S]-TBPS, in the presence of 5 mM GABA
Method: [^35S]-t-Butylbicyclophosphorothionate (TBPS) binding assays using rat brain cortical membranes in the presence of 5 mM GABA has been described (Gee et al., J. Pharmacol. Exp. Ther. 1987, 241, 346-353; Hawkinson et al., Mol. Pharmacol. 1994, 46, 977-985; Lewin, A. H et al., Mol. Pharmacol. 1989, 35, 189-194).
Briefly, cortices are rapidly removed following decapitation of carbon dioxide-anesthetized Sprague-Dawley rats (200-250 g). The cortices are homogenized in 10 volumes of ice-cold 0.32 M sucrose using a glass/teflon homogenizer and centrifuged at 1500×g for 10 min at 4° C. The resultant supernatants are centrifuged at 10,000×g for 20 min at 4° C. to obtain the P2 pellets. The P2 pellets are resuspended in 200 mM NaCl/50 mM Na—K phosphate pH 7.4 buffer and centrifuged at 10,000×g for 10 min at 4° C. This washing procedure is repeated twice and the pellets are resuspended in 10 volumes of buffer. Aliquots ([…]) of the membrane suspensions are incubated with 3 nM [^35S]-TBPS and […] aliquots of test drug dissolved in dimethyl sulfoxide (DMSO) (final 0.5%) in the presence of 5 mM GABA. The incubation is brought to a final volume of 1.0 mL with buffer. Nonspecific binding is determined in the presence of […] and ranged from 15 to 25%. Following a 90 min incubation at room temp, the assays are terminated by filtration through glass fiber filters (Schleicher and Schuell No. 32) using a cell harvester (Brandel) and rinsed three times with ice-cold buffer. Filter bound radioactivity is measured by liquid scintillation spectrometry. Non-linear curve fitting of the overall data for each drug averaged for each concentration is done using Prism (GraphPad). […] The concentration of test compound producing 50% inhibition (IC50) of specific binding and the maximal extent of inhibition (Imax) are determined for the individual experiments with the same model used for the overall data and then the means±SEM.s of the individual experiments are calculated.
Various compounds are or can be screened to determine their potential as modulators of [^35S]-TBPS binding in vitro. These assays are or can be performed in accordance with the above
In Table 2 below, A indicates a TBPS IC50 (μM)<0.1 μM, B indicates a TBPS IC50 (μM) of 0.1 μM to <1.0 μM, C indicates a TBPS IC50 (μM) of 1 μM to <10.0 μM, D means≥10 μM.

Q: For `CCOC[C@@]1(O)CC[C@@]2(C3CC3)[C@H](CC[C@H]3[C@@H]4CC[C@H](C(C)=O)[C@@]4(C)CC[C@@H]32)C1` [Compound 4.12, 1-((3R,5R,8S,9S,10R,13S,14S,17S)-10-cyclopropyl-3-(ethoxymethyl)-3-hydroxy-13-methylhexadecahydro-1H-cyclopenta[a]phenanthren-17-yl)ethan-1-one], which IC50 is on record?
A: Its IC50 is under 100 nM.

Q: `CCOC[C@@]1(O)CC[C@@]2(C3CC3)[C@H](CC[C@H]3[C@@H]4CC[C@H](C(=O)Cn5cc(C#N)cn5)[C@@]4(C)CC[C@@H]32)C1` [Compound 5.2, 1-(2-((3R,5R,8S,9S,10R,13S,14S,17S)-10-cyclopropyl-3-(ethoxymethyl)-3-hydroxy-13-methylhexadecahydro-1H-cyclopenta[a]phenanthren-17-yl)-2-oxoethyl)-1H-pyrazole-4-carbonitrile] was tested. Which IC50 did it give?
A: Its IC50 is under 100 nM.

Q: `CCOC[C@@]1(O)CC[C@@]2(C3CC3)[C@H](CC[C@H]3[C@@H]4CC[C@H](C(=O)Cn5ccc(C#N)n5)[C@@]4(C)CC[C@@H]32)C1` [Compound 6, 1-(2-((3R,5R,8S,9S,10R,13S,14S,17S)-10-cyclopropyl-3-(ethoxymethyl)-3-hydroxy-13-methylhexadecahydro-1H-cyclopenta[a]phenanthren-17-yl)-2-oxoethyl)-1H-pyrazole-3-carbonitrile] was tested. Which IC50 did it give?
A: Its IC50 is under 100 nM.

Q: For `COC[C@@]1(O)CC[C@@]2(C3CC3)[C@H](CC[C@H]3[C@@H]4CC[C@H](C(C)=O)[C@@]4(C)CC[C@@H]32)C1` [Compound 7.4, 1-((3R,5R,8S,9S,10R,13S,14S,17S)-10-cyclopropyl-3-hydroxy-3-(methoxymethyl)-13-methylhexadecahydro-1H-cyclopenta[a]phenanthren-17-yl)ethan-1-one], which IC50 is on record?
A: Its IC50 is under 100 nM.

Q: Which IC50 does the source give for `COC[C@@]1(O)CC[C@@]2(C3CC3)[C@H](CC[C@H]3[C@@H]4CC[C@H](C(=O)Cn5cc(C#N)cn5)[C@@]4(C)CC[C@@H]32)C1` [Compound 8.2b, 1-(2-((3R,5R,8S,9S,10R,13S,14S,17S)-10-cyclopropyl-3-hydroxy-3-(methoxymethyl)-13-methylhexadecahydro-1H-cyclopenta[a]phenanthren-17-yl)-2-oxoethyl)-1H-pyrazole-4-carbonitrile] here?
A: Its IC50 is under 100 nM.

Q: Which IC50 does the source give for `CC(=O)[C@H]1CC[C@H]2[C@@H]3CC[C@@H]4C[C@](C)(O)CC[C@]4(C4CC4)[C@H]3CC[C@]12C` [Compound A9, 1-((3R,5R,8S,9S,10R,13S,14S,17S)-10-cyclopropyl-3-hydroxy-3,13-dimethylhexadecahydro-1H-cyclopenta[a]phenanthren-17-yl)ethan-1-one] here?
A: The IC50 was under 100 nM.

Q: Which IC50 does the source give for `C[C@@]1(O)CC[C@@]2(C3CC3)[C@H](CC[C@H]3[C@@H]4CC[C@H](C(=O)Cn5cc(C#N)cn5)[C@@]4(C)CC[C@@H]32)C1` [Compound A11, 1-(2-((3R,5R,8S,9S,10R,13S,14S,17S)-10-cyclopropyl-3-hydroxy-3,13-dimethylhexadecahydro-1H-cyclopenta[a]phenanthren-17-yl)-2-oxoethyl)-1H-pyrazole-4-carbonitrile] here?
A: The IC50 was under 100 nM.
